The values below come from patent publication EP4599821A1, “CANNABIDIOL-COMPRISING LIPOSOMES” (Novozymatic BV, priority 2024, dated 2025).

The conditions of series [1]: cited from earlier work.
A short description of series [2]: Visual appearance of diluted reference and intravenous CBD formulations. Format: physicochemical. From the text: As a control for the CBD granules, a commercial product was used, namely Epidyolex.
When comparing the two solutions, the second approach qualified as a suitable injectable formulation for the rat study.

As for `C=C(C)[C@@H]1CCC(C)=C[C@H]1c1c(O)cc(CCCCC)cc1O` [CBD, cannabidiol], the “Cmax (maximum concentration)” value in series [1] (20 mg of orally delivered CBD/THC sprayed onto a gelatin capsule) was 2.4 ng/mL. Besides, the “Time to peak plasma concentration” value in series [1] (oral delivery) was 1 to 4 h. For the same molecule, the “visual appearance of intravenous formulation” value in series [2] (first approach: 50 mg/ml in 95% ethanol, diluted to 1 mg/ml in 96% saline and 2% polysorbate 80) was “formation of fat drops”; in series [2] (second approach: 50 mg/ml in 1:1 ethanol: polysorbate 80, diluted to 1 mg/ml in 98% saline, 10 or 20 min rest), “no fat drops and no sediment were observed”.
